Entries after “also recorded” stand apart in the source; their conditions may differ. Like-named read-outs stand apart in the source and are kept apart here. Marks after values point to notes of the source that are not given here. Non-standard residues stand in square brackets, D forms with d. Residues, ends and D or L forms follow the SMILES beside them. *: point of attachment. Dmt = Cc1cc(O)cc(C)c1C[C@H](N)C(=O)O; Tic = O=C(O)[C@@H]1Cc2ccccc2CN1; NHPh = c1ccc(N*)cc1
Assays:
δ receptors [1] = target: T1, δ receptors (Mus musculus, UniProt P32300); assay: MVD functional pharmacological bioassay (Example 75); set-up: A single MVD was suspended in 4 ml modified Kreb's solution; from tissue; host or cells: mouse vas deferens
μ receptors [2] = target: T2, μ receptors (Cavia porcellus, UniProt P97266); conditions: Balboni et al. (2000); read-out: μ agonist activity IC50, published data; cited from earlier work
μ receptors [3] = target: T3, μ receptors (Rattus norvegicus, UniProt P33535); assay: Radio-receptor competition assay, rat brain synaptosomes, [3H]DAGO (Example 74); type: binding; conditions: for Ki: rat brain P2 synaptosomes, [3H]DAGO
T3 construct: assayed with a rat brain synaptosomal preparation (P2); from tissue; host or cells: rat brain P2 synaptosomes
Description: (§1) After 120 min incubation at room temperature (23-24° C.), the samples were rapidly filtered through Whatman GF/C glass fiber filers and washed three times with 2 ml ice-cold 0.05 M Tris, pH 7.4-7.5, containing 0.1% BSA. Presoaking filters in 0.1% polyethylenimine is only required in assays with peptides carrying an overall positive charge, such as dynorphin or nociceptin (Guerrini et al., J. Med. Chem., 40: 1789-1793 (1997)). Non-specific binding was determined using 2 μM unlabeled DPDPE or DAGO for δ or μ assays, respectively. The Ki data, determined according to Cheng and Prusoff (Cheng et al., Biochem. Pharmacol., 22: 3099-3108 (1973)), represent the means±SE from 3 or more independent assays using at least 3 different synaptosome preparations and testing the analogues with 5-8 graded dosages over 2-3 orders of magnitude in concentration.

δ receptors [4] = target: T1, δ receptors; set-up: A single MVD was suspended in 4 ml modified Kreb's solution; from tissue; host or cells: mouse vas deferens; conditions: Balboni et al. (2000); cited from earlier work
δ receptors [5] = target: T4, δ receptors (Rattus norvegicus, UniProt P33533); assay: Radio-receptor competition assay, rat brain synaptosomes, [3H]DPDPE (Example 74); type: binding; conditions: for Ki: rat brain P2 synaptosomes, [3H]DPDPE, read-out: Receptor affinity (nM) Kiδ; for μ/δ: selectivity Kiμ/Kiδ
T4 construct: assayed with a rat brain synaptosomal preparation (P2); from tissue; host or cells: rat brain P2 synaptosomes
Description: as §1

μ receptors [6] = target: T2, μ receptors; assay: GPI functional pharmacological bioassay (Example 75); set-up: species or system guinea pig; conditions: μ agonism
Description: The in vitro pharmacological assays used a single MVD for δ receptors and a 2- to 3-cm segment of GPI for μ receptors with each suspended in 20 ml organ baths containing balanced salt solutions in a physiological buffer (Salvadori et al., Mol. Med., 1: 678-689 (1995)). […] Data were obtained from 4 independent assays and tissue samples. Agonism is expressed as the IC50 (nM) value and antagonism as pA2 (Labarre et al., Eur. J. Pharm., 406: R1-R3 92000)).

δ-opioid receptors [7] = target: T5, δ-opioid receptors (Rattus norvegicus, UniProt P33533); assay: Rat brain synaptosome (P2) binding, δ antagonist [3H]N,N(CH3)2-Dmt-Tic-OH (Example 47); conditions: selectivity; Kiδ from antagonist radioligand [3H]N,N(CH3)2-Dmt-Tic-OH
T5 construct: assayed with a rat brain synaptosomal preparation (P2); from tissue; host or cells: rat brain P2 synaptosomes
Description: (§2) Briefly, the agonists [^3H]DPDPE (30-60 Ci/mmol, NEN-DuPont) and [^3H]DAGO (30-60 Ci/mmol, Amersham) were used to label δ and μ sites, respectively, under saturation binding conditions (2 hrs at 22° C.). Excess unlabeled peptide (2 μM) established non-specific binding levels and the labeled membranes were rapidly filtered on Whatman GF/C glass fibre filters, thoroughly washed, dried and measured for radioactivity using CytoScint (ICN, Irvine, Calif.). […] The affinity constants (Ki) were calculated according to Cheng and Prusoff (Biochem. Pharmacol. 22: 3099-3108 (1973)).

δ-opioid receptors [8] = target: T5, δ-opioid receptors; assay: Rat brain synaptosome (P2) binding, agonist [3H]DPDPE (Example 47); conditions: rat brain synaptosomes (P2); mean ± SEM, n in parentheses; read-out: Kiδ(nM) [^3H]DPDPE
Description: as §2

μ-opioid receptors = target: T6, μ-opioid receptors (Rattus norvegicus, UniProt P33535); assay: Rat brain synaptosome (P2) binding, [3H]DAGO (Example 47); conditions: rat brain synaptosomes (P2); mean ± SEM, n in parentheses; read-out: Kiμ (nM) [^3H]DAGO
T6 construct: assayed with a rat brain synaptosomal preparation (P2); from tissue; host or cells: rat brain P2 synaptosomes

hMDR-1 = hMDR-1 (Homo sapiens, UniProt P08183); assay: Calcein AM assay for Pgp in hMDR-1 transfected G-185 fibroblasts (Example 49); conditions: calcein fluorescence
Description: Stably transfected G-185 fibroblasts containing hMDR-1 and NIH 3T3 cell lines were grown to confluent monolayers in DMEM containing 4.5 g glucose/1, 10% fetal calf serum, L-glutamine, penicillin (50 units/ml), streptomycin (50 μg/ml) and 1 mM sodium pyruvate in 5% CO2 at 37° C. G-185 cells were maintained in […] colchicine.
The assay for Pgp is based on the diffusion of non-fluorescent calcein AM across the cell membrane. Calcein AM is then hydrolyzed and accumulates as the fluorescent calcein. In transfected cells expressing excess hMDR-1, Pgp extrudes calcein AM from the cell before hydrolysis occurs; inhibition of hMDR-1 results in the accumulation of intracellular calcein. Transfected G-185 cells and the NIH 3T3 cells were analyzed in triplicate using seven graded dosages of verapamil or the opioid peptides in 96-well plates. Cells (2.5×10^6/well) were incubated in 100 μl culture medium for 15 min at 37° C. and 50 μl of 1 μM calcein AM in PBS, plus 50 μl of verapamil or one of the present inventive compounds in PBS, or 100 μl of PBS alone (control) were added. Cells were mixed and incubated for 15 min at 37° C., then centrifuged for 5 min at 2,000×g, and then washed three times in 200 μl PBS. Cell pellets were resuspended in 200 μl PBS and transferred to white Microfluor Plates (Nunc, Copenhagen, Denmark) in order to measure calcein-specific fluorescence (494 nm absorption; 517 nm emission). Internal controls were carried out with each experiment using verapamil and PBS in order to compare the consistency between cell preparations. Means±SE (error bars) were determined and plotted using Prism™ (GraphPad, San Diego, Calif.).

δ-opioid receptors [9] = target: T5, δ-opioid receptors; conditions: selectivity; Kiδ from [3H]DPDPE; cells marked a/b: Salvadori et al. (1995), (1997); cited from earlier work
δ receptors [10] = target: T1, δ receptors; conditions: for MVD Ke: δ antagonism, Ke = antilog of pA2
Description: The functional bioactivity of the present inventive compounds was assessed using standard functional bioassays of δ and μ activity in MVD and GPI (Salvadori et al. (1995), supra; and Salvadori et al., J. Med. Chem. 36: 3748-3756 (1993)). […] Dose-response curves were obtained (Salvadori et al. (1995), supra) for both tissues. […] Data were derived from at least four independent tissue samples and dose-response curves from which the pA2 values were determined (Salvadori et al. (1997), supra) according to Arunlakshana and Schild (Br. J. Pharmacol. 14: 48-58 (1959)).

δ-opioid receptors [11] = target: T5, δ-opioid receptors; conditions: radioligand; Kertesz et al. (1998); cited from earlier work
[12] = read-out: Receptor affinity (nM) Kiμ

T1 sequence (P32300 whole entry): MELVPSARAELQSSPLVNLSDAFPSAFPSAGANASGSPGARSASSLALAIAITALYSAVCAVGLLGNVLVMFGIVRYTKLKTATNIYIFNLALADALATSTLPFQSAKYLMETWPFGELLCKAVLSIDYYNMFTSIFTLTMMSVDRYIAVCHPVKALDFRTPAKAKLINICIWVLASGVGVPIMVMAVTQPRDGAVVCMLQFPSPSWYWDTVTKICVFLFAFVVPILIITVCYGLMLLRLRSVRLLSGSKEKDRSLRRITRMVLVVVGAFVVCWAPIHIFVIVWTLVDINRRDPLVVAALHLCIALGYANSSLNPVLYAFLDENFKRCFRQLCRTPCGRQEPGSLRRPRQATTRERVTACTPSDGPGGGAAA
T5 sequence (P33533 whole entry): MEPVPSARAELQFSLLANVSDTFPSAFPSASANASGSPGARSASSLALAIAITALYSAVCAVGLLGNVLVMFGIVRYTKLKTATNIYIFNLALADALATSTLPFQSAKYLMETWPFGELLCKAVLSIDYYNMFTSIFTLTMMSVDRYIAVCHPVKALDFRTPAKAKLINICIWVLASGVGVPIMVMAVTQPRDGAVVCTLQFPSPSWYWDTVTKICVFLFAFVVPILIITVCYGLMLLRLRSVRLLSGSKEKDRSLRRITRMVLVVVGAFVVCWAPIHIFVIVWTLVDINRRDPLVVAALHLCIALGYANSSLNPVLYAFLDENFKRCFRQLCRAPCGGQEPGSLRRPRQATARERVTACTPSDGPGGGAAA
T4 sequence (P33533 whole entry): as above
T3 sequence (P33535 whole entry): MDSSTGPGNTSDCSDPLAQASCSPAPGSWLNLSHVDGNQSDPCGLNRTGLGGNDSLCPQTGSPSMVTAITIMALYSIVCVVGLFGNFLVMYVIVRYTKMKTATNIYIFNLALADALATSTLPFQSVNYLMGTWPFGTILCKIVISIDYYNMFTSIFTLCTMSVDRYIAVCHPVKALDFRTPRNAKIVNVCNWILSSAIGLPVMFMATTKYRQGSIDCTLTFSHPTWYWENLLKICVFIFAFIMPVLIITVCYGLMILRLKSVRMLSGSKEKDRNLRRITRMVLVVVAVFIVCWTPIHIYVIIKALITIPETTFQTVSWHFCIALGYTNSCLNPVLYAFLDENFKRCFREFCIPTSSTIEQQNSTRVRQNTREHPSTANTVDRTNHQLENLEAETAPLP
T6 sequence (P33535 whole entry): as above
hMDR-1, sequence (P08183 whole entry): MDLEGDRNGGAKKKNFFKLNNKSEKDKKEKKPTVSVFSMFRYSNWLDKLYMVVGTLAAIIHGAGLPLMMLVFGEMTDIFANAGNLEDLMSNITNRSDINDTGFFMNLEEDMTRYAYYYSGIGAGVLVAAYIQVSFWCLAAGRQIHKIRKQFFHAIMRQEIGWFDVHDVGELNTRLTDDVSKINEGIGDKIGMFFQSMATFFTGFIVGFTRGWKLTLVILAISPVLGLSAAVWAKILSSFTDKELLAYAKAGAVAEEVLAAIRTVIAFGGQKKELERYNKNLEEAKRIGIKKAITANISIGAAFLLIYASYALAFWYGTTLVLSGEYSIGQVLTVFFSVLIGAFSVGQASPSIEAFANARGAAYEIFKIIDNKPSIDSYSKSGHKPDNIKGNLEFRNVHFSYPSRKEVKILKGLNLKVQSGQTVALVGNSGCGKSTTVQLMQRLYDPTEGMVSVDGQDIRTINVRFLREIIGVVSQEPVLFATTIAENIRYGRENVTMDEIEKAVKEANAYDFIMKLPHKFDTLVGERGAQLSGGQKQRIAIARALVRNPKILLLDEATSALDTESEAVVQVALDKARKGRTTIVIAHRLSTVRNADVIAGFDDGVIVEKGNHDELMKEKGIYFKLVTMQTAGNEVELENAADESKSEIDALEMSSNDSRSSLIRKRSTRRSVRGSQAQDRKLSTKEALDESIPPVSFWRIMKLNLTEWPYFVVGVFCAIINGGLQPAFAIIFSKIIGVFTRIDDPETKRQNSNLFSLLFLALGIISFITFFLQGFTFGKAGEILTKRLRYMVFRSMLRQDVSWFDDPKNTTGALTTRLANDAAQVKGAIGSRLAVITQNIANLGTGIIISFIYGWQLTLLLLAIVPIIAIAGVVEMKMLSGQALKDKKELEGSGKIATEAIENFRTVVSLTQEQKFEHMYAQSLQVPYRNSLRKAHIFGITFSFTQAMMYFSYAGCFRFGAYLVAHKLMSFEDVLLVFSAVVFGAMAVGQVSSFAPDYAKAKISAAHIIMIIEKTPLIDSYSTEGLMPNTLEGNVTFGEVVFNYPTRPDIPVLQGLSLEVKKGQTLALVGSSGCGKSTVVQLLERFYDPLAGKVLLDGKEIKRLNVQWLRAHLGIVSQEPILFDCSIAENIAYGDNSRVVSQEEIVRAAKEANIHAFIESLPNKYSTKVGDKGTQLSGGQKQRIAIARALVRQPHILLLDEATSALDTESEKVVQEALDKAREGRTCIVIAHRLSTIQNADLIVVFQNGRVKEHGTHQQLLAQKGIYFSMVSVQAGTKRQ
T2 sequence (P97266 whole entry, looked up): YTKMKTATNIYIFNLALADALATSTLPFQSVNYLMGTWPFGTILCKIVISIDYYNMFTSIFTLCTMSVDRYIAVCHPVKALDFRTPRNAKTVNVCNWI

Question: With `Cc1cc(O)cc(C)c1CC(N)C(=O)N1Cc2ccccc2CC1c1nc2ccccc2[nH]1` (centres unmarked) [Compound 23, 2-amino-1-[3-(1H-benzoimidazole-2-yl)-3,4-dihydro-1H-isoquinoline-2-yl]-3-(4-hydroxyl-2,6-dimethylphenyl)-propane-1-one] as the molecule, how does the “reduction of electrical stimulation of the tissue” value (δ receptors [1]; high concentration (up to 1 μM)) read?
Answer: 83%

Question: And the IC50 (μ receptors [2])?
Answer: 30 nM

Question: And the “increase in μ receptor affinity relative to H-Dmt-Tic-NH2” value (μ receptors [3])?
Answer: ~40 fold

Question: And the Ki (μ receptors [3]; [12])?
Answer: 7.22 nM

Question: And the “δ antagonism pA2, published data” value (δ receptors [4])?
Answer: 7.67

Question: What about the “δ binding affinity greater than H-Dmt-Tic-ol” value (δ receptors [5]) of the same molecule?
Answer: 3 fold

Question: And the “δ binding affinity higher than H-Dmt-Tic-NH2” value (δ receptors [5])?
Answer: 10 fold

Question: And the Ki (δ receptors [5])?
Answer: 0.13 nM

Question: What about the μ/δ (δ receptors [5]) of the same molecule?
Answer: 7.28

Question: For `Cc1cc(O)cc(C)c1C[C@H](N)C(=O)N1Cc2ccccc2C[C@H]1C(=O)NCC(=O)NCc1nc2ccccc2[nH]1` [Compound 26, H-Dmt-Tic-Gly-NH—CH2-Bid], which “δ activity on MVD, in words” value (δ receptors [1]) is on record?
Answer: potent δ antagonist activity

Question: What about the “δ/μ selectivity, in words” value (δ receptors [5]; from Table IV binding) of the same molecule?
Answer: essentially non-selective

Question: And the μ/δ (δ receptors [5])?
Answer: 353

Question: With `Cc1cc(O)cc(C)c1C[C@H](N)C(=O)N1Cc2ccccc2C[C@H]1C(=O)NCC(=O)Nc1ccccc1` [Compound 27, H-Dmt-Tic-Gly-NH-Ph] (H-[Dmt]-[Tic]-Gly-NHPh) as the molecule, how does the EC50 (δ receptors [1]) read?
Answer: 3.02 nM

Question: What about the “δ activity on MVD, in words” value (δ receptors [1]) of the same molecule?
Answer: potent δ-agonist activity; also recorded: essentially equivalent activity as a δ agonist and a μ agonist

Question: What about the “lower antagonist activity of N,N(Me)2-Dmt-Tic-OH against this agonist than against deltorphin C and 24” value (δ receptors [1]; MVD) of the same molecule?
Answer: 5 fold

Question: What about the “MVD, antagonist activity (pA2) N,N(CH3)2-Dmt-Tic-OH” value (δ receptors [1]; pA2 of N,N(CH3)2-Dmt-Tic-OH against the listed δ agonist) of the same molecule?
Answer: 9.04

Question: And the “MVD, antagonist activity (pA2) naloxone” value (δ receptors [1]; pA2 of naloxone against the listed δ agonist)?
Answer: 7.47

Question: And the Ki (μ receptors [3]; Receptor affinity (nM) Kiμ)?
Answer: < 1 nM

Question: And the Ki (μ receptors [3]; [12])?
Answer: 0.16 nM

Question: What about the “Functional Bioactivity GPI (pEC50)” value (μ receptors [6]) of the same molecule?
Answer: 8.59

Question: And the Ki (δ receptors [5])?
Answer: 0.042 nM

Question: And the μ/δ (δ receptors [5])?
Answer: 3.6

Question: Which “Antagonist K1μ/Kiδ” value (δ-opioid receptors [7]) does the source give for `Cc1cc(O)cc(C)c1C[C@H](N)C(=O)N1Cc2ccccc2C[C@H]1C(=O)N[C@@H](C)C(N)=O` [H-Dmt-Tic-Ala-NH2, reference compound] (H-[Dmt]-[Tic]-Ala-NH2) here?
Answer: 68

Question: What about the Ki (δ-opioid receptors [8]) of the same molecule?
Answer: 0.24 ± 0.02 nM

Question: What about the Ki (μ-opioid receptors) of the same molecule?
Answer: 47 ± 3.4 nM

Question: What about the Ki (μ receptors [3]; [12]) of the same molecule?
Answer: 47 nM

Question: What about the “inhibition of hMDR-1 (Pgp), in words” value (hMDR-1) of the same molecule?
Answer: inactive

Question: What about the “Agonist K1μ/Kiδ” value (δ-opioid receptors [9]) of the same molecule?
Answer: 195^a

Question: What about the “MVD Ke” value (δ receptors [10]) of the same molecule?
Answer: 9.0 nM

Question: What about the Ki (δ receptors [5]) of the same molecule?
Answer: 0.22 nM

Question: And the μ/δ (δ receptors [5])?
Answer: 195

Question: What does the source list for `Cc1cc(O)cc(C)c1C[C@H](N)C(=O)N1Cc2ccccc2C[C@H]1C(=O)N[C@@H](C)C(=O)O` [H-Dmt-Tic-Ala-OH, reference compound] (H-[Dmt]-[Tic]-Ala-OH)?
Answer: Antagonist K1μ/Kiδ (δ-opioid receptors [7]): 2784; Agonist K1μ/Kiδ (δ-opioid receptors [9]): 2852^a; MVD Ke (δ receptors [10]): 4.0 nM

Question: For `Cc1cc(O)cc(C)c1C[C@H](N)C(=O)N1Cc2ccccc2C[C@H]1C(N)=O` [H-Dmt-Tic-NH2] (H-[Dmt]-[Tic]-NH2), which “Agonist K1μ/Kiδ” value (δ-opioid receptors [9]) is on record?
Answer: 227^a

Question: Which Ki (μ-opioid receptors) does the source give for `Cc1cc(O)cc(C)c1C[C@H](N)C(=O)N1Cc2ccccc2C[C@H]1C(=O)O` [H-Dmt-Tic-OH, reference compound] (H-[Dmt]-[Tic]-OH) here?
Answer: 3320 ± 435 nM

Question: And the Ki (μ receptors [3]; [12])?
Answer: 3320 nM

Question: And the “Agonist K1μ/Kiδ” value (δ-opioid receptors [9])?
Answer: 150800^a

Question: What about the “MVD Ke” value (δ receptors [10]) of the same molecule?
Answer: 5.7 nM

Question: What does the source list for `Cc1cc(O)cc(C)c1C[C@H](N)C(=O)N1Cc2ccccc2C[C@H]1CO` [H-Dmt-Tic-ol, reference compound]?
Answer: Ki (μ receptors [3]; [12]): 151 nM; μ/δ (δ receptors [5]): 344

Question: What does the source list for `Cc1cc(O)cc(C)c1C[C@@H](C(=O)N1Cc2ccccc2C[C@H]1C(=O)O)N(C)C` [N,N(Me)2-Dmt-Tic-OH, reference compound]?
Answer: Antagonist K1μ/Kiδ (δ-opioid receptors [7]): 34785; Ki (μ-opioid receptors): 2440 ± 462 nM; inhibition of hMDR-1 (Pgp), in words (hMDR-1): inactive; Agonist K1μ/Kiδ (δ-opioid receptors [9]): 20636^b; MVD pA2 (range) (δ receptors [10]; δ antagonism against deltorphin C, mean (range)): 9.4

Question: Which Kd (δ-opioid receptors [11]) does the source give for [^3H]N,N-(CH3)2-Dmt-Tic-OH here?
Answer: 0.39 nM

From patent US6916905B2, “Dmt-Tic di-and tri-peptidic derivatives and related compositions and methods of use” (The United States of America as represented by the …, priority 2000, dated 2005)
